Measured values: patent US20260053811A1, “METHODS OF TREATING HYPERTENSION IN OBESE SUBJECTS” (Mineralys Therapeutics, Inc., priority 2022, published 2026)

Legend:
Type in all cases: in vivo, human
hypertensive subjects [1] = assay: Clinical laboratory evaluations (chemistry incl. serum creatinine, hematology, coagulation, urinalysis)
Source text: (§2) Safety endpoints of this study are: • (a) Incidence and severity of all spontaneously reported adverse events (AEs) • (b) Changes in vital signs (standing SBP, standing DBP, body temperature, heart rate, and respiratory rate) • (c) Changes in electrocardiogram parameters (including cardiac intervals: PR, QRS, QT, and corrected QT interval using Fridericia's formula) • (d) Changes in clinical laboratory assessments (hematology, chemistry, coagulation, and urinalysis) • (e) Change in office-measured SBP from Study Week 8 (end-of-treatment period to end of follow up (i.e. end of Study Week 12 for Part 1 and end of Study 10 for Part 2).

plasma renin activity = assay: Plasma renin activity (PRA) (pharmacodynamic response); conditions: for Renin Activity, Mean (SD) Observed / Renin Activity, Mean (SD) Percent Change from Baseline: Part 1; for Renin Activity, Mean Observed / Renin Activity, Mean Percent Change from Baseline: Part 2
Source text: (§1) PK/PD Analysis Set includes all subjects in the SAF who have sufficient data available for the analysis of pharmacokinetic and pharmacodynamic measurements. In the analyses based on PKPD, subjects will be analyzed according to the actual treatment received.

11-deoxycorticosterone = assay: Serum 11-deoxycorticosterone (pharmacodynamic response); conditions: for 11-Deoxycorticosterone, Mean (SD) Observed / 11-Deoxycorticosterone, Mean (SD) Percent Change from Baseline: Part 1; for 11-Deoxycorticosterone, Mean Observed / 11-Deoxycorticosterone, Mean Percent Change from Baseline: Part 2
Source text: as §1

hypertensive subjects [2] = assay: Vital signs, physical examination, ECG parameters; conditions: Parts 1 and 2
Source text: as §2

hypertensive subjects [3] = assay: Estimated glomerular filtration rate (eGFR, CKD-EPI equation); conditions: Part 1
Procedure: In contrast, mean eGFR for the Placebo group was relatively stable throughout treatment, reaching a mean maximal reduction of −2.80 mL/min/1.73 m^2 at Week 2 (range: −0.83 mL/min/1.73 m^2 to −2.80 mL/min/1.73 m^2). Estimated glomerular filtration rate was estimated using the CKD-EPI equation.

## CC(=O)N[C@H]1CC[C@H](NC(=O)CN2CCN(c3nncc(-c4ccc(C)cc4)n3)CC2)CC1 [Compound A HBr]
Hypertensive subjects [1]; Part 1 or Part 2
  Clinical laboratory parameters (chemistry, hematology, coagulation, urinalysis), change from baseline to Week 8: no meaningful changes
Hypertensive subjects [1]; active treatment cohorts, Parts 1 and 2
  Serum creatinine levels compared with placebo: increased
Plasma renin activity; Wk 4, 12.5 mg BID
  Renin Activity, Mean (SD) Observed: 5.989 (11.272) μg/L/hr
  Renin Activity, Mean (SD) Percent Change from Baseline: 838.89 (2411.4) %
Plasma renin activity; Wk 4, 12.5 mg QD
  Renin Activity, Mean (SD) Observed: 1.804 (3.565) μg/L/hr
  Renin Activity, Mean (SD) Percent Change from Baseline: 85.09 (291.65) %
Plasma renin activity; Wk 4, 25 mg BID
  Renin Activity, Mean (SD) Observed: 2.860 (4.219) μg/L/hr
  Renin Activity, Mean (SD) Percent Change from Baseline: 344.07 (480.75) %
Plasma renin activity; Wk 4, 50 mg QD
  Renin Activity, Mean (SD) Observed: 3.940 (9.162) μg/L/hr
  Renin Activity, Mean (SD) Percent Change from Baseline: 359.69 (888.86) %
Plasma renin activity; Wk 4, 100 mg QD
  Renin Activity, Mean (SD) Observed: 3.870 (6.308) μg/L/hr
  Renin Activity, Mean (SD) Percent Change from Baseline: 489.18 (974.60) %
  Renin Activity, Mean Observed: 12.642 µg/L/h
  Renin Activity, Mean Percent Change from Baseline: 811.54%
Plasma renin activity; Wk 12, 12.5 mg BID
  Renin Activity, Mean (SD) Observed: 5.118 (11.751) μg/L/hr
  Renin Activity, Mean (SD) Percent Change from Baseline: 212.37 (402.15) %
Plasma renin activity; Wk 12, 12.5 mg QD
  Renin Activity, Mean (SD) Observed: 2.429 (5.048) μg/L/hr
  Renin Activity, Mean (SD) Percent Change from Baseline: 137.45 (279.23) %
Plasma renin activity; Wk 12, 25 mg BID
  Renin Activity, Mean (SD) Observed: 2.898 (8.323) μg/L/hr
  Renin Activity, Mean (SD) Percent Change from Baseline: 198.91 (423.17) %
Plasma renin activity; Wk 12, 50 mg QD
  Renin Activity, Mean (SD) Observed: 3.374 (7.008) μg/L/hr
  Renin Activity, Mean (SD) Percent Change from Baseline: 400.07 (808.60) %
Plasma renin activity; Wk 12, 100 mg QD
  Renin Activity, Mean (SD) Observed: 1.653 (2.830) μg/L/hr
  Renin Activity, Mean (SD) Percent Change from Baseline: 94.66 (221.58) %
Plasma renin activity; Wk 10, 100 mg QD
  Renin Activity, Mean Observed: 7.602 µg/L/h
  Renin Activity, Mean Percent Change from Baseline: 192.62%
Plasma renin activity; across doses
  Plasma renin activity, pharmacodynamic response: commensurate increase in plasma renin activity
Plasma renin activity; irrespective of dose and baseline PRA, highest at Week 4
  Renin activity, percent change from baseline: increased in all subjects treated with lorundrostat
11-deoxycorticosterone; Wk 4, 12.5 mg BID
  11-Deoxycorticosterone, Mean (SD) Observed: 9.0 (3.0) ng/dL
  11-Deoxycorticosterone, Mean (SD) Percent Change from Baseline: 12.50 (37.50) %
11-deoxycorticosterone; Wk 4, 12.5 mg QD
  11-Deoxycorticosterone, Mean (SD) Observed: 11.1 (5.5) ng/dL
  11-Deoxycorticosterone, Mean (SD) Percent Change from Baseline: 31.41 (60.95) %
11-deoxycorticosterone; Wk 4, 25 mg BID
  11-Deoxycorticosterone, Mean (SD) Observed: 13.7 (13.9) ng/dL
  11-Deoxycorticosterone, Mean (SD) Percent Change from Baseline: 71.63 (173.69) %
11-deoxycorticosterone; Wk 4, 50 mg QD
  11-Deoxycorticosterone, Mean (SD) Observed: 8.0 (0.0) ng/dL
  11-Deoxycorticosterone, Mean (SD) Percent Change from Baseline: −2.66 (9.61) %
11-deoxycorticosterone; Wk 4, 100 mg QD
  11-Deoxycorticosterone, Mean (SD) Observed: 9.5 (5.2) ng/dL
  11-Deoxycorticosterone, Mean (SD) Percent Change from Baseline: 16.18 (66.37) %
  11-Deoxycorticosterone, Mean Observed: 10.28 ng/dL
  11-Deoxycorticosterone, Mean Percent Change from Baseline: 6.02%
11-deoxycorticosterone; Wk 12, 12.5 mg BID
  11-Deoxycorticosterone, Mean (SD) Observed: 8.0 (0.0) ng/dL
  11-Deoxycorticosterone, Mean (SD) Percent Change from Baseline: 0.00 (0.00) %
11-deoxycorticosterone; Wk 12, 12.5 mg QD
  11-Deoxycorticosterone, Mean (SD) Observed: 9.2 (4.9) ng/dL
  11-Deoxycorticosterone, Mean (SD) Percent Change from Baseline: 11.96 (62.37) %
11-deoxycorticosterone; Wk 12, 25 mg BID
  11-Deoxycorticosterone, Mean (SD) Observed: 8.0 (0.0) ng/dL
  11-Deoxycorticosterone, Mean (SD) Percent Change from Baseline: 0.00 (0.00) %
11-deoxycorticosterone; Wk 12, 50 mg QD
  11-Deoxycorticosterone, Mean (SD) Observed: 8.5 (2.4) ng/dL
  11-Deoxycorticosterone, Mean (SD) Percent Change from Baseline: 3.01 (31.53) %
11-deoxycorticosterone; Wk 12, 100 mg QD
  11-Deoxycorticosterone, Mean (SD) Observed: 8.4 (2.0) ng/dL
  11-Deoxycorticosterone, Mean (SD) Percent Change from Baseline: 2.80 (28.58) %
11-deoxycorticosterone; Part 1 active treatment arms, Week 4
  11-deoxycorticosterone compared with placebo: Transient increases
11-deoxycorticosterone; Wk 10, 100 mg QD
  11-Deoxycorticosterone, Mean Observed: 8.00 ng/dL
  11-Deoxycorticosterone, Mean Percent Change from Baseline: −8.78%
11-deoxycorticosterone; summary of trial
  11-deoxycorticosterone levels: unaffected
Hypertensive subjects [2]
  Vital signs, physical examination, ECG parameters: no notable findings
Hypertensive subjects [3]; 100 mg QD, Week 2
  eGFR mean maximum decline relative to baseline: 10.91 mL/min/1.73 m^2
Hypertensive subjects [3]; Week 1, 12.5 mg BID
  Estimated Glomerular Filtration Rate, Mean (SD) Change from Baseline: −2.25 (8.42) mL/min/1.73 m^2
  Estimated Glomerular Filtration Rate, Mean (SD) Observed: 79.45 (15.19) mL/min/1.73 m^2
Hypertensive subjects [3]; Week 1, 12.5 mg QD
  Estimated Glomerular Filtration Rate, Mean (SD) Change from Baseline: −4.30 (7.14) mL/min/1.73 m^2
  Estimated Glomerular Filtration Rate, Mean (SD) Observed: 73.57 (20.33) mL/min/1.73 m^2
Hypertensive subjects [3]; Week 1, 25 mg BID
  Estimated Glomerular Filtration Rate, Mean (SD) Change from Baseline: −6.85 (8.88) mL/min/1.73 m^2
  Estimated Glomerular Filtration Rate, Mean (SD) Observed: 74.00 (13.13) mL/min/1.73 m^2
Hypertensive subjects [3]; Week 1, 50 mg QD
  Estimated Glomerular Filtration Rate, Mean (SD) Change from Baseline: −2.96 (8.52) mL/min/1.73 m^2
  Estimated Glomerular Filtration Rate, Mean (SD) Observed: 74.21 (16.88) mL/min/1.73 m^2
Hypertensive subjects [3]; Week 1, 100 mg QD
  Estimated Glomerular Filtration Rate, Mean (SD) Change from Baseline: −6.80 (10.03) mL/min/1.73 m^2
  Estimated Glomerular Filtration Rate, Mean (SD) Observed: 70.81 (17.66) mL/min/1.73 m^2
Hypertensive subjects [3]; Week 2, 12.5 mg BID
  Estimated Glomerular Filtration Rate, Mean (SD) Change from Baseline: −3.69 (6.46) mL/min/1.73 m^2
  Estimated Glomerular Filtration Rate, Mean (SD) Observed: 78.86 (18.56) mL/min/1.73 m^2
Hypertensive subjects [3]; Week 2, 12.5 mg QD
  Estimated Glomerular Filtration Rate, Mean (SD) Change from Baseline: −4.87 (5.03) mL/min/1.73 m^2
  Estimated Glomerular Filtration Rate, Mean (SD) Observed: 73.00 (20.81) mL/min/1.73 m^2
Hypertensive subjects [3]; Week 2, 25 mg BID
  Estimated Glomerular Filtration Rate, Mean (SD) Change from Baseline: −5.42 (10.01) mL/min/1.73 m^2
  Estimated Glomerular Filtration Rate, Mean (SD) Observed: 75.43 (15.32) mL/min/1.73 m^2
Hypertensive subjects [3]; Week 2, 50 mg QD
  Estimated Glomerular Filtration Rate, Mean (SD) Change from Baseline: −4.32 (9.06) mL/min/1.73 m^2
  Estimated Glomerular Filtration Rate, Mean (SD) Observed: 72.86 (16.55) mL/min/1.73 m^2
Hypertensive subjects [3]; Week 2, 100 mg QD
  Estimated Glomerular Filtration Rate, Mean (SD) Change from Baseline: −10.91 (8.57) mL/min/1.73 m^2
  Estimated Glomerular Filtration Rate, Mean (SD) Observed: 65.56 (17.66) mL/min/1.73 m^2
Hypertensive subjects [3]; Week 3, 12.5 mg BID
  Estimated Glomerular Filtration Rate, Mean (SD) Change from Baseline: −5.17 (8.54) mL/min/1.73 m^2
